Data from patent publication US7488820B2, “Naphthofluorescein-based metal sensors, and methods of making and using the same” (Massachusetts Institute of Technology, priority 2004, dated 2009).

Tests used:
[1] = Ratiometric fluorescence responses (F624/F528) of MS4 and MS5 to various metal ions; conditions: 5 μM probe, 50 equiv metal ion, 50 mM HEPES, 100 mM KCl, pH 8, excitation 499 nm
Experimental: FIG. 9 depicts the ratiometric fluorescence spectroscopic responses of MS4 to various metal ions. Bars represent the ratio of fluorescence intensities collected at 624 and 528 nm (F624/F528). All spectra were acquired in 50 mM HEPES, 100 mM KCl, pH 8. Grey bars represent the addition of an excess of the appropriate metal ion (50 equiv metal ion of interest) to a 5 μM solution of MS4. Dark grey bars represent the subsequent addition of 50 equiv Hg^2+ to the solution. Excitation was provided at 499 nm.
FIG. 10 depicts the ratiometric fluorescence spectroscopic responses of MS5 to various metal ions. Bars represent the ratio of fluorescence intensities collected at 624 and 528 nm (F624/F528). All spectra were acquired in 50 mM HEPES, 100 mM KCl, pH 8. Grey bars represent the addition of an excess of the appropriate metal ion (50 equiv metal ion of interest) to a 5 μM solution of MS5. Dark grey bars represent the subsequent addition of 50 equiv Hg^2+ to the solution. Excitation was provided at 499 nm.
Millipore water was used to prepare all aqueous solutions. […] Fluorescence spectra were collected by using a Photon Technology International (Lawrenceville, N.J.) Quanta Master 4L-format scanning spectrofluorimeter equipped with an LPS-220B 75-W xenon lamp and power supply, A-1010B lamp housing with integrated igniter, switchable 814 photon-counting/analog PMT detector, and a MD-5020 motor driver. […]

[2] = tested on: COS-7 cells; assay: Cell membrane permeability and ratio confocal fluorescence imaging of intracellular Zn2+ in live COS-7 cells; assay type: cell-based
Experimental: FIG. 5. Ratio confocal fluorescence imaging in COS-7 cells using the Zeiss LSM510 META system operating in the lambda mode. Fluorescence was collected in 10.7 nm optical windows centered at 612 and 526 nm. Pseudocolor figures depict the ratio of fluorescence intensities at these two emission wavelengths. (a) Ratio confocal fluorescence images of live COS-7 cells labeled with ZNP1. Incubation of cells with 20 μM ZNP1-Ac for 20 min at 37° C. (left), ZNP1-stained cells loaded with 50 μM Zn(pyrithione)2 for 5 min (middle), and reversal of the cytosolic ratio enhancements with 100 μM TPEN (right). Confocal images were taken from a middle optical section (vertical dimension) of the cell samples. (b) Confocal fluorescence images of NO-triggered release of endogenous Zn^2+ in live COS-7 cells. Incubation of cells with 20 μM ZNP1-Ac for 20 min at 37° C. (left), ZNP1-stained cells treated with 10 mM SNOC (S-nitrosocysteine, middle) for 1 hr, and reversal of the observed ratio increases with 2 mM TPEN (right). Confocal images were taken from a middle optical section (vertical dimension) of the cell samples.
We therefore prepared the non-fluorescent diacetate derivative of ZNP1, ZNP1-Ac, anticipating that this more lipophilic derivative would permeate the cell and be transformed to fluorescent ZNP1 by the action of intracellular esterases. […] Ratiometric fluorescence imaging of ZNP1-stained cells is readily performed by using the META detection system operating in lambda mode with optical windows centered at 612 and 526 nm. […] Prompt increases in the ratio of cytosolic fluorescence intensities collected at 612 and 526 nm are observed upon the addition of exogenous Zn^2+ (50 μM) carried by the ionophore pyrithione (2-mercaptopyridine N-oxide, FIG. 5a). […]
The successful use of ZNP1 for monitoring changes in intracellular Zn^2+ concentrations using ratiometric fluorescence imaging led us to apply this probe for detecting endogenous pools of intracellular Zn^2+. […]

[3] = Metal ion selectivity of the ratiometric fluorescence response (F624/F528) of ZNP1
Experimental: FIG. 4. Ratiometric fluorescence spectroscopic responses of ZNP1 to various metal ions. Bars represent the ratio of fluorescence intensities collected at 624 and 528 nm (F624/F528). All spectra were acquired in 50 mM HEPES, 100 mM KCl, pH 7.5. White bars represent the addition of an excess of the appropriate metal ion (2 mM for Ca^2+ and Mg^2+, 100 μM for all other metal ions) to a 10 μM solution of ZNP1. Grey bars represent the subsequent addition of 100 μM Zn^2+ to the solution. Excitation was provided at 499 nm.
The emission profiles of apo or Zn^2+-bound ZNP1 are unperturbed in the presence of 2 mM Ca^2+ or Mg^2+, indicating a degree of selectivity for Zn^2+ over these biologically competing alkaline earth cations.
Millipore water was used to prepare all aqueous solutions, which were passed through 0.2 um cellulose filters prior to use. All spectroscopic measurements were performed under simulated physiological conditions using buffer solutions containing 50 mM HEPES, 4-(2-hydroxyethyl)-1-piperazineethanesulfonic acid, and 100 mM KCl adjusted to pH 7.5. A glass electrode (Orion), calibrated prior to each use, was used to determine solution pH. Solutions of Zn^2+ were prepared from 100 mM stock solutions of ZnCl2 in water. Absorption spectra were recorded on a Hewlett-Packard 8453A diode array spectrophotometer, and fluorescence spectra on a Photon Technology International (PTI) Quanta Master 4 L-format scanning spectrofluorimeter equipped with an LPS-220B 75-watt xenon lamp and power supply, A-1010B lamp housing with integrated igniter, switchable 814 photon-counting/analog photomultiplier detection unit, and MD-5020 motor driver. Samples for absorption and emission measurements were contained in 1 cm×1 cm quartz cuvettes (3.5 mL volume, Stama). The experiments for measuring quantum yields, apparent dissociation constants (Kd), and metal ion selectivities were performed by using standard protocols. Quantum yields were determined by reference to fluorescein in 0.1 N NaOH (Φ=0.95). Confocal fluorescence imaging experiments were performed with a Zeiss LSM510 laser scanning microscopy system containing an Axiovert 200M inverted fluorescence microscope. The microscope was equipped with an argon ion laser (488-nm excitation) and objective lenses (100×), and scanning was performed using the META detection system operating in lambda mode (Zeiss) with 10.7 nm collection windows. During imaging measurements, cell samples were kept on the microscope stage in a CTI-3700 incubator at 37° C. under 5% CO2. Additions of Zn^2+ as the pyrithione complex (2-mercaptopyridine N-oxide), TPEN [N,N,N′,N′-tetra(2-picolyl)ethylenediamine], or SNOC (S-nitrosocysteine) to cell samples were performed directly on the microscope stage by bath application to the media. […]

[4] = Fluorescence spectroscopy: quantum yield and ratiometric emission response to Zn2+; assay type: physicochemical; conditions: pH 7.5
Experimental: FIG. 3. Ratiometric fluorescence spectroscopic response of 20 μM ZNP1 to buffered Zn^2+ solutions. Spectra were acquired in 50 mM HEPES, 100 mM KCl, pH 7.5. Excitation was provided at 499 nm. A standard EDTA/Ca^2+/Zn^2+ dual-metal buffer system was employed to deliver controlled concentrations of buffered free Zn^2+. The spectra shown are for free Zn^2+ buffered at 0, 0.17, 0.42, 0.79, 1.3, 2.1, 3.4, 5.6, and 10.2 nM, respectively.
Quantum yield, Φ, may be obtained by comparison of the integrated area of the corrected emission spectrum of the sample with that of a reference solution. A preferred reference solution is a solution of fluorescein in 0.1 N NaOH, quantum efficiency 0.95. The concentration of the reference is adjusted to match the absorbance, Abs, of the test sample. The quantum yields may be calculated using the following equation:
ZNP1 was evaluated at physiological ionic strength and pH [50 mM HEPES (4-(2-hydroxyethyl)-1-piperazineethanesulfonic acid), 100 mM KCl, pH 7.5] in the presence of EDTA (ethylenediaminetetraacetic acid) to scavenge adventitious metal ions. […] The quantum yield for apo ZNP1 is 0.02.
The observed changes in absorption and emission spectra occur up to a 1:1 [Zn^2+][ZNP1] ratio, indicating the likely formation of a 1:1 complex. Upon addition of Zn^2+, the visible absorption profile of the ZNP1 chemosensor red shifts to a single broad peak centered at 547 nm (ε=2.2×10^4 M^−1cm^−1). Excitation at 499 nm produces a fluorescence spectrum featuring one dominant emission band centered at 624 nm with a minor component centered at 545 nm (FIG. 3). The quantum yield for Zn^2+-ZNP1 complex is 0.05. […] The ratio of naphthofluorescein- to fluorescein-like emission intensities (λ624/λ528) upon 499-nm excitation varies from 0.4 in the absence of Zn^2+ to 7.1 in the presence of Zn^2+, an 18-fold increase.
Millipore water was used to prepare all aqueous solutions, which were passed through 0.2 um cellulose filters prior to use. All spectroscopic measurements were performed under simulated physiological conditions using buffer solutions containing 50 mM HEPES, 4-(2-hydroxyethyl)-1-piperazineethanesulfonic acid, and 100 mM KCl adjusted to pH 7.5. A glass electrode (Orion), calibrated prior to each use, was used to determine solution pH. Solutions of Zn^2+ were prepared from 100 mM stock solutions of ZnCl2 in water. Absorption spectra were recorded on a Hewlett-Packard 8453A diode array spectrophotometer, and fluorescence spectra on a Photon Technology International (PTI) Quanta Master 4 L-format scanning spectrofluorimeter equipped with an LPS-220B 75-watt xenon lamp and power supply, A-1010B lamp housing with integrated igniter, switchable 814 photon-counting/analog photomultiplier detection unit, and MD-5020 motor driver. Samples for absorption and emission measurements were contained in 1 cm×1 cm quartz cuvettes (3.5 mL volume, Stama). The experiments for measuring quantum yields, apparent dissociation constants (Kd), and metal ion selectivities were performed by using standard protocols. Quantum yields were determined by reference to fluorescein in 0.1 N NaOH (Φ=0.95). Confocal fluorescence imaging experiments were performed with a Zeiss LSM510 laser scanning microscopy system containing an Axiovert 200M inverted fluorescence microscope. The microscope was equipped with an argon ion laser (488-nm excitation) and objective lenses (100×), and scanning was performed using the META detection system operating in lambda mode (Zeiss) with 10.7 nm collection windows. During imaging measurements, cell samples were kept on the microscope stage in a CTI-3700 incubator at 37° C. under 5% CO2. Additions of Zn^2+ as the pyrithione complex (2-mercaptopyridine N-oxide), TPEN [N,N,N′,N′-tetra(2-picolyl)ethylenediamine], or SNOC (S-nitrosocysteine) to cell samples were performed directly on the microscope stage by bath application to the media. SNOC was prepared immediately before use.

Compound	selectivity for Hg2+ over other metal ions (in words) [1]	permeability to cell membranes ([2]; initial experiments)	monitoring of intracellular [Zn2+] changes (612/526 nm ratio) ([2]; stained COS-7 cells, 50 μM Zn2+/pyrithione, then 100 μM TPEN)	detection of NO-triggered release of endogenous Zn2+ (612/526 nm ratio) ([2]; stained COS-7 cells, 10 mM S-nitrosocysteine, reversed by 2 mM TPEN)	selectivity for Zn2+ over other metal ions (in words) [3]	emission profiles of apo or Zn2+-bound probe in the presence of Ca2+ or Mg2+ ([3]; 10 μM probe, 2 mM Ca2+ or Mg2+, pH 7.5)	ratiometric response to subsequent addition of 100 μM Zn2+ in the presence of first-row transition metal ions ([3]; 10 μM probe, Cu2+, Ni2+, Co2+, Fe2+, Mn2+ 100 μM, then 100 μM Zn2+)	change in emission ratio with Cu2+, Ni2+, Co2+, Fe2+, Mn2+ ([3]; 10 μM probe, metal ions at 10-fold excess over probe)	time of fluorescence response to buffered Zn2+ ([4]; 20 μM probe, free Zn2+ 0-10.2 nM)	increase of λ624/λ528 emission ratio on Zn2+ binding ([4]; 499-nm excitation) [fold]	ratio of emission intensities λ624/λ528 in the absence of Zn2+ ([4]; 499-nm excitation)	ratio of emission intensities λ624/λ528 in the presence of Zn2+ ([4]; 499-nm excitation)	quantum yield, Zn2+ complex ([4]; Zn2+-bound, 50 mM HEPES, 100 mM KCl)	quantum yield, apo ([4]; no Zn2+, EDTA present, 50 mM HEPES, 100 mM KCl, reference fluorescein in 0.1 N NaOH)
CCSCCN(Cc1ccccn1)Cc1ccccc1NCc1c2oc3c(ccc4cc(O)ccc43)c(-c3ccccc3C(=O)O)c-2ccc1=O [MS4]	selectivity for Hg^2+ over metal ions such as Na^+, Ca^2+, and Mg^2+	–	–	–	–	–	–	–	–	–	–	–	–	–
CCSCCN(CCSCC)Cc1ccccc1NCc1c2oc3c(ccc4cc(O)ccc43)c(-c3ccccc3C(=O)O)c-2ccc1=O [MS5, 2-{11-[(2-{[Bis-(2-ethylsulfanylethyl)amino]methyl}phenylamino)methyl]-3-hydroxy-10-oxo-10H-benzo[c]xanthen-7-yl}benzoic acid]	selectivity for Hg^2+ over metal ions such as Na^+, Ca^2+, and Mg^2+	–	–	–	–	–	–	–	–	–	–	–	–	–
O=C(O)c1ccccc1-c1c2ccc(=O)c(CNc3ccccc3CN(Cc3ccccn3)Cc3ccccn3)c-2oc2c1ccc1cc(O)ccc12 [ZNP1, 4-[12-{Bis(2-pyridylmethyl)aminomethyl}-N-methylaniline]-3,10-dibenzoate-spiro[7H-benzo[c]xanthen-7,1′(3′H)-isobenzofuran]-3′-one]	–	impermeable to cell membranes	can monitor changes in intracellular [Zn^2+] reversibly	establishes a rise in intracellular [Zn^2+]	selectivity for Zn^2+ over metal ions such as Na^+, K^+, Ca^2+, and Mg^2+	unperturbed	only the sample containing Mn^2+ affords a ratiometric fluorescence response	no discernable change in emission ratios	immediately upon mixing	18	0.4	7.1	0.05	0.02
